In PubChem BioAssay (NCI):
“And” between values parts separate entries of the source, which are not always exact repeats. Equal entries are not always repeated.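 Results reflect a 48-hour exposure of cells in 96-well plates to compound at five concentrations. Here, GI50 denotes the concentration required for 50% inhibition of growth. Definition used: TGI = concentration required for complete inhibition of growth.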

Experiments:
Assay in all cases: NCI anticancer screen, dose series, 48 h
EKVX NSCLC = test system: EKVX NSCLC
HL-60(TB) leukemia = test system: HL-60(TB) leukemia
HCC-2998 colon = test system: HCC-2998 colon
SK-MEL-28 melanoma = test system: SK-MEL-28 melanoma
U251 CNS = test system: U251 CNS
786-0 renal = test system: 786-0 renal
NCI-H226 lung = test system: NCI-H226 lung
SNB-19 CNS = test system: SNB-19 CNS
TK-10 renal = test system: TK-10 renal
UACC-257 melanoma = test system: UACC-257 melanoma

Structure (SMILES) | GI50 (EKVX NSCLC) | TGI (EKVX NSCLC) | GI50 (HL-60(TB) leukemia) [µM] | TGI (HL-60(TB) leukemia) | GI50 (HCC-2998 colon) | TGI (HCC-2998 colon) | GI50 (SK-MEL-28 melanoma) | TGI (SK-MEL-28 melanoma) | GI50 (U251 CNS) | TGI (U251 CNS) | GI50 (786-0 renal) [µM] | TGI (786-0 renal) | GI50 (NCI-H226 lung) | TGI (NCI-H226 lung) | GI50 (SNB-19 CNS) | TGI (SNB-19 CNS) | GI50 (TK-10 renal) [µM] | TGI (TK-10 renal) | GI50 (UACC-257 melanoma) [µM] | TGI (UACC-257 melanoma)
COC1CCC(OC)C(c2nc3sccn3c2/C=N/N=C(N)N)C1 (stereo not drawn) | 34.8 µM | > 92.7 µM | 1.21 | > 36.7 µM | 31.1 µM | 54.5 µM | 34.9 µM | > 94.4 µM | 38.7 µM | 73.4 µM | 19.7 | 47 µM | 13.6 µM | 47.5 µM | 33.8 µM | > 96.4 µM | > 52.1 | > 81.4 µM | 5.61 | 44.1 µM
CCOc1ccc2cc(-c3nn(CC4CCN(C)CC4)c4ncnc(N)c34)ccc2c1 | 26.4 µM | > 100 µM | 15.7 | 34.6 µM | 17.1 µM | 32 µM | 3.12 µM | 10.1 µM | 12.9 µM | 27.5 µM | 14.5 | 29.7 µM | 14.2 µM | 40.3 µM | 15.6 µM | 45.9 µM | 14.4 | 34.3 µM | 14.7 | 30.2 µM
COc1cc(C=NCC(=O)CSC(c2ccccc2)c2ccccc2)ccc1O | 14.3 µM | 50.7 µM | 11.4 | 27.6 µM | 3.6 µM | 16.5 µM | 14.4 µM | 27.6 µM | 14 µM | 26.9 µM | 14.9 | 28.2 µM | 16.8 µM | 38.5 µM | 14.5 µM | 28.7 µM | 14.7 | 53.7 µM | 5.94 | 18.7 µM
O=C(NNC(=O)c1ccncc1)C(=O)Nc1cc(Cl)c(Cl)cc1Cl |  | > 100 µM |  | > 100 µM |  | 57.8 µM |  | > 100 µM |  | > 100 µM |  | > 100 µM |  | > 100 µM |  | > 100 µM |  | > 100 µM |  | > 100 µM
N#C/C(=C/C=C/c1cccc(Cl)c1)S(=O)c1ccccc1 (stereo not drawn) | 0.803 µM | 2.23 µM | 0.285 | 2.16 µM | 0.366 µM | 1.31 µM | 1.23 µM | 2.68 µM | 0.361 µM | 1.31 µM | 0.308 | 1.01 µM | 1.14 µM | 3.68 µM | 0.684 µM | 2.52 µM | 0.359 | 1.32 µM | 1.64 | 3.16 µM
CCOC(=O)/C=C/c1ccc([N+](=O)[O-])o1 | 24.7 µM | 80.7 µM | 2.38 | 6.78 µM | 11.2 µM | 24.2 µM | 2.08 µM | 5.07 µM | 14.7 µM | 50.4 µM | 2.13 | 4.67 µM | 2.02 µM | 4.25 µM | 29 µM | > 100 µM | 4.7 | 16.3 µM | 2.74 | 11.4 µM
COc1ccc2c(c1)[n+](=O)c(/C=C/C(=O)c1cc(OC)c(OC)c(OC)c1)c(C)n2[O-] | 5.82 µM | > 100 µM | 4.98 | 22.4 µM | 23.4 µM | 68.7 µM | 12.3 µM | 50.9 µM | 5.94 µM | 47 µM | 13.7 | 50.3 µM | 22.1 µM | > 100 µM | 29.7 µM | > 100 µM | 8.74 | > 100 µM | 9.61 | > 100 µM
C=C(CN1CCc2ccccc2C1)c1ccc(CCCC(=O)Nc2ccccc2N)cc1 | 12 µM | 47.1 µM | 7.13 | 31.3 µM | 21.1 µM | 43.2 µM | 15.7 µM | 29.7 µM | 18.4 µM | 44.5 µM | 12.1 | 28.2 µM | 28.8 µM | 94.6 µM | 23.2 µM | > 100 µM | 41.3 | > 100 µM | 17.4 | 42 µM
O=C1C=C(NCCc2ccccc2)c2ccccc2C1=O |  | 20.8 µM |  | 13.6 µM |  | 4.09 µM |  | 3.96 µM |  | 16.1 µM |  | 16.6 µM |  | 4.61 µM |  | 9.29 µM |  | 27.3 µM |  | 2.93 µM
Cc1c(-c2ccc(-c3ccccc3F)cc2)nc2ccc(F)cc2c1C(=O)O | 77 µM and 53.3 µM | 173 µM and 448 µM |  | 36.4 µM and 148 µM and 302 µM | 19.7 µM and 55.9 µM | 115 µM and 129 µM | 22.4 µM and 67.8 µM | 158 µM and 400 µM | 0.0723 µM and 0.5 µM | 104 µM and 259 µM | 0.5 | 97.7 µM and 291 µM | 38.3 µM and 29.4 µM | 216 µM and 209 µM | 0.864 µM and 1.73 µM | 164 µM and 513 µM | 62.7 | 208 µM and 471 µM |  | 155 µM and 236 µM
COc1ccc2c(CN3CCCC[C@H]3O)cc3cc4c(cc3c2c1)OCO4 | 0.817 µM | 9.44 µM | 0.351 | 1.35 µM | 0.337 µM | 1.48 µM | 0.329 µM | 1.31 µM | 0.422 µM | 10.8 µM | 0.503 | 6.28 µM | 0.251 µM | 0.589 µM | 0.445 µM | 7.45 µM | 0.702 | 6.97 µM | 0.237 | 0.737 µM
OC[C@H]1N[C@H](CO)[C@@H](O)[C@H]1O |  | > 100 µM |  | > 100 µM |  | > 100 µM |  | > 100 µM |  | > 100 µM |  | > 100 µM |  | > 100 µM |  | > 100 µM |  | > 100 µM |  | > 100 µM
Cc1nc(Nc2ccc(Cl)cc2)sc1C(=O)Nc1cccc2c(=O)[nH][nH]c(=O)c12 |  | 44.2 µM |  | 45.2 µM |  | > 100 µM |  | > 100 µM |  | > 100 µM |  | 47.9 µM |  | > 100 µM |  | > 100 µM |  | > 100 µM |  | > 100 µM
CC(C)(C1=NC(C(C)(C)C)CO1)C1=N[C@@H](C(C)(C)C)CO1 (stereo partly drawn) |  | > 100 µM |  | > 100 µM |  | > 100 µM |  | > 100 µM |  | > 100 µM |  | > 100 µM |  | > 100 µM |  | > 100 µM |  | > 100 µM |  | > 100 µM
COc1ccc(C(=O)c2ccccc2)c(O)c1 | 40.9 µM | > 100 µM | 96.9 | > 100 µM | > 100 µM | > 100 µM | > 100 µM | > 100 µM | 66.3 µM | > 100 µM | > 100 | > 100 µM | > 100 µM | > 100 µM | > 100 µM | > 100 µM | > 100 | > 100 µM | > 100 | > 100 µM
CCOC(=O)c1sc(NC(=O)COc2ccc(/C=C3\CCc4cc(OC)ccc4C3=O)cc2)nc1C | 18.5 µM | 53.3 µM | 0.294 | 0.949 µM | 1.47 µM | 4.38 µM | 14.6 µM | 27.7 µM | 8.75 µM | 21.8 µM | 11.5 | 24.7 µM | 13.3 µM | 27.3 µM | 12.2 µM | 25.1 µM | 3.34 | 21.4 µM | 11.5 | 25 µM
Cc1cccc(C=NC23CC4CC(CC(C4)C2)C3)c1 |  | > 100 µM |  | > 100 µM |  | > 100 µM |  | > 100 µM |  | > 100 µM |  | > 100 µM |  | > 100 µM |  | > 100 µM |  | > 100 µM |  | > 100 µM
S=C(Nc1ccc(-c2nc3ccccc3s2)cc1)Nc1ccc(-c2nc3ccccc3s2)cc1 | 8.79 µM | 30.2 µM | 35.7 | > 100 µM | 17.4 µM | 31.2 µM | 22.3 µM | 54.8 µM | 17.2 µM | 41.6 µM | 28 | 83.2 µM | 14 µM | 38.8 µM | 43 µM | > 100 µM | 18.3 | 63.2 µM | 24.5 | 48 µM
CCOC(=N)CC(=O)Nc1ccccc1CC |  | > 100 µM |  | > 100 µM |  | > 100 µM |  | > 100 µM |  | > 100 µM |  | > 100 µM |  | > 100 µM |  | > 100 µM |  | > 100 µM |  | > 100 µM
